The source made the active and inactive calls. No rule for the calls is given here.

The term IC50 denotes the midpoint of a concentration-inhibition curve.

The test deals with Ubiquitin carboxyl-terminal hydrolase 8 (Homo sapiens) (UniProt P40818). Put plainly: Ubiquitin-specific protease 8 inhibitors, concentration-effect, biochemical, validation of initial actives (AID 1645862).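 Also: potency reflects inhibition of USP8 cleavage of a ubiquitin rhodamine substrate.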 To be noted: recombinant USP8 deubiquitinase activity assay.
Sequence of Ubiquitin carboxyl-terminal hydrolase 8 (Homo sapiens) (P40818 whole entry, looked up): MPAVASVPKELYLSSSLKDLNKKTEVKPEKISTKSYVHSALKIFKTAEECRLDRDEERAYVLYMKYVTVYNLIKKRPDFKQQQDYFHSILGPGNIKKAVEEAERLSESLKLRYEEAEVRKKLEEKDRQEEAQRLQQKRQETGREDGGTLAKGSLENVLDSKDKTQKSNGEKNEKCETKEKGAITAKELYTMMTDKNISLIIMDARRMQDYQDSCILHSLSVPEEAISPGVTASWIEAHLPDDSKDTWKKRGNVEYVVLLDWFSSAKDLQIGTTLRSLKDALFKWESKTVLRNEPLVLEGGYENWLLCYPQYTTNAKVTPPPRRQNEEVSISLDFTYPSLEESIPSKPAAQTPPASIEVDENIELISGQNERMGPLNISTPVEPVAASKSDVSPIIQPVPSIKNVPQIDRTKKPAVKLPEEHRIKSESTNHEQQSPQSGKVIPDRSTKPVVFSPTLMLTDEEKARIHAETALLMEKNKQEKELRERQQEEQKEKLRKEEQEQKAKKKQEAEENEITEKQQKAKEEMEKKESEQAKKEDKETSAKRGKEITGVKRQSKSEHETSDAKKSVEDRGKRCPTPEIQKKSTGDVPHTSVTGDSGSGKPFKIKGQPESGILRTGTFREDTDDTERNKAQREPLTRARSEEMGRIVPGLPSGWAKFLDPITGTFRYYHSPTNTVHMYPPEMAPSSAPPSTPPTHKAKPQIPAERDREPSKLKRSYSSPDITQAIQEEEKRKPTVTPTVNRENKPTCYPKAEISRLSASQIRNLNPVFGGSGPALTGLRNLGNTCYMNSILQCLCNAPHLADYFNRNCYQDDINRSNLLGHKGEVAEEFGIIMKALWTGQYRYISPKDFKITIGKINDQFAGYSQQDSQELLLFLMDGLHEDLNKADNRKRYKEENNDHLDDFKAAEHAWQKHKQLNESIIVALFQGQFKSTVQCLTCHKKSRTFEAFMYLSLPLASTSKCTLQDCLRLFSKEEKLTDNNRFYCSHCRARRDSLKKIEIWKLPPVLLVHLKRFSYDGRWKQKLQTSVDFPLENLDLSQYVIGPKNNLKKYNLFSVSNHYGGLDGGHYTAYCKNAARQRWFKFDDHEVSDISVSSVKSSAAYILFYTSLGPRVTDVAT

For the compound `COc1ccc(C(CNC(=O)c2cc(-c3ccc(Cl)cc3)on2)N2CCOCC2)cc1` (centres undefined), the IC50 is > 40 µM (inactive).

With `CC(=O)c1ccc(NC(=O)CCc2c(C)c3c(C)nn(-c4ccccc4)c3n(C)c2=O)cc1`, the IC50 is > 40 µM (inactive).

On to `O=C(CSc1ccc2nnc(-c3ccc(Cl)cc3)n2n1)N1CCCCC1`, for which the IC50 is > 40 µM (inactive).

Consider `O=C(CCn1c(=O)c2sccc2n(CC(=O)OCc2ccccc2)c1=O)NCc1ccc2c(c1)OCO2`, for which the IC50 is > 40 µM (inactive).

On to `O=C(c1cnc2ccccc2n1)N1CCC(S(=O)(=O)c2ccc(-c3ccco3)cc2)CC1`, for which the IC50 was > 40 µM (inactive).

On to `O=C(/C=C/C=C/C=C/C1CCCCC1)NC1=C[C@@](O)(/C=C/C=C/C=C/C(=O)NC2=C(O)CCC2=O)[C@@H]2O[C@@H]2C1=O`, for which the IC50 is > 40 µM (inactive).

As for `Cc1ccc(NC(=O)c2cc(-c3ccccn3)nc3c(Cl)cccc23)nc1`, the IC50 is > 40 µM (inactive).

For `O=C(Cn1c(=O)c2sccc2n(Cc2ccc([N+](=O)[O-])cc2)c1=O)NCCc1ccccc1`, the IC50 was > 40 µM (inactive).

Turning to `O=C(CN1CC=C(c2ccccc2)CC1)Nc1ccc(S(=O)(=O)N2CCOCC2)cc1`, the IC50 was > 40 µM (inactive).

For the compound `COc1cccc(NC(=O)c2cn(-c3cc(N4CCCC4)ncn3)cn2)c1`, the IC50 was > 40 µM (inactive).

For `O=C(c1ccc2c(c1)OCO2)[C@@H]1[C@H](C(=O)OC(c2ccccc2)c2ccccc2)N2c3ccccc3C=CC2[C@@]12C(=O)Nc1ccccc12` (some centres undefined), the IC50 was > 40 µM (inactive).

On to `Cc1nc(SCC(=O)Nc2ccc(S(N)(=O)=O)cc2)c2cnn(-c3ccccc3)c2n1`, for which the IC50 was > 40 µM (inactive).

For `Cc1nn(-c2nc3ccccc3o2)c2c1C(c1cccc([N+](=O)[O-])c1)CC(=O)N2` (centres undefined), the IC50 is > 40 µM (inactive).

Turning to `O=C(NC1CCCC1)c1ccc(-c2ccc(S(=O)(=O)NCc3ccccc3)cc2)cc1`, the IC50 is > 40 µM (inactive).

For the compound `CCOC(=O)c1ccc(NC(=O)Cn2c(=O)n(-c3ccc(CC(=O)NCc4ccco4)cc3)c(=O)c3ccccc32)cc1`, the IC50 was > 40 µM (inactive).

For `Cc1ccc2nc(CNc3ccc(F)cc3C)cc(=O)n2c1`, the IC50 is > 40 µM (inactive).

Consider `COC(=O)c1ccc2c(=O)n(-c3ccc(C)c(F)c3)c(N3CCC(C(N)=O)CC3)nc2c1`, for which the IC50 is > 40 µM (inactive).

For the compound `COC(=O)c1ccc2c(=O)n(CCCCCC(=O)NCCc3ccccc3Cl)c(=O)[nH]c2c1`, the IC50 was > 40 µM (inactive).

Consider `Cc1ccc(S(=O)(=O)Nc2nc(-c3ccc4c(c3)NC(=O)C(C)O4)c(C)s2)cc1` (centres undefined), for which the IC50 is > 40 µM (inactive).

Consider `COc1ccc(C)cc1NC(=O)Nc1nnc(CC(=O)NCc2ccccc2)s1`, for which the IC50 is > 40 µM (inactive).

As for `Cc1cccc(NC(=O)CCCc2nnc3c(=O)n(-c4cccc(F)c4)ccn23)c1`, the IC50 is > 40 µM (inactive).

Turning to `O=C(COC(=O)C(Cc1c[nH]c2ccccc12)NC(=O)c1ccccc1Cl)Nc1ccc([N+](=O)[O-])cc1C(F)(F)F` (centres undefined), the IC50 is > 40 µM (inactive).

Consider `CS(=O)(=O)c1ccc2nc(N(Cc3cccnc3)C(=O)c3ccc4ccccc4c3)sc2c1`, for which the IC50 is > 40 µM (inactive).

Regarding `COc1ccc(CNC(=O)CCCc2nnc3c(=O)n(-c4cc(C)cc(C)c4)ccn23)cc1`, the IC50 was > 40 µM (inactive).

Take `O=C(NC1(O)C(=O)c2ccccc2C1=O)c1ccc(-c2csnn2)cc1`: the IC50 was 5.57 µM.

For `COCCCn1c(C(=O)NCc2ccccc2)cc2c(=O)n3ccccc3nc21`, the IC50 is > 40 µM (inactive).

`Cn1c(=O)c(-c2ccc(C(=O)NCc3cccc(Cl)c3)cc2)nc2cccnc21`: the IC50 was > 40 µM (inactive).

Turning to `O=C(Nc1ccc(NC(=O)c2ccccc2O)cc1)Nc1ccc(OCc2ccccc2)cc1`, the IC50 is > 40 µM (inactive).

Take `O[C@H]1[C@H](NCc2cccc(C(F)(F)F)c2)[C@@H](c2cncnc2)C[C@H]1O`: the IC50 is > 40 µM (inactive).

With `O=C(COc1ccc(N2CC(C(=O)NCc3ccccc3)CC2=O)cc1)Nc1ccc(F)cc1` (centres undefined), the IC50 was > 40 µM (inactive).

Turning to `CCOC(=O)N1CCN(C(=O)c2ccc(NCc3ccc(F)cc3)c(S(=O)(=O)Nc3cccc(C(F)(F)F)c3)c2)CC1`, the IC50 was > 40 µM (inactive).

Regarding `COc1ccc(Nc2nnc(Cc3ccc(Cl)cc3)c(=O)[nH]2)cc1`, the half-maximal inhibitory concentration (IC50) was 29.2 µM.

As for `Cc1ccc(C)c(Cn2cnc3c(nnn3-c3cccc(F)c3)c2=O)c1`, the IC50 is > 40 µM (inactive).

`O=C(NC1CCCC1)c1ccc(Cn2c(=O)c3ccccc3n(Cc3cc(=O)n4ccccc4n3)c2=O)cc1`: the IC50 was > 40 µM (inactive).

As for `COc1ccc(NC(=O)CC(=O)c2ccc([N+](=O)[O-])cc2)cc1S(=O)(=O)Nc1ccc(Br)cc1`, the IC50 is > 40 µM (inactive).

As for `Cc1cn2nnc(C(=O)Nc3ccc(OC(F)(F)F)cc3)c2c(=O)[nH]1`, the IC50 is > 40 µM (inactive).

Take `O=S(=O)(Nc1cccc(O)c1)c1ccc2oc3ccc(S(=O)(=O)Nc4cccc(O)c4)cc3c2c1`: the IC50 was > 40 µM (inactive).

As to `Cc1ccccc1NC(=O)CSC1=NC2(CCCCC2)Nc2ccccc21`, the IC50 is > 40 µM (inactive).

In the case of `CN1CCC(N2CCN(C(=O)C3CCCN(c4cnc5nccnc5c4)C3)CC2)CC1` (centres undefined), the IC50 is > 40 µM (inactive).

Consider `COc1ccc(Cl)cc1NC(=O)COC(=O)c1cc2ccccc2oc1=O`, for which the IC50 was 24.2 µM.

As to `COc1ccc(-n2ccc(=O)c(-c3nc(-c4ccc(F)cc4)no3)n2)cc1`, the IC50 is > 40 µM (inactive).

Turning to `Cc1c(-c2nsc(NC(=O)c3ccc(Cl)cc3)n2)nnn1-c1ccccc1F`, the IC50 is > 40 µM (inactive).

For `COc1cc(=O)c(C(=O)Nc2ccc(C#N)cc2)nn1-c1cccc(F)c1`, the IC50 was > 40 µM (inactive).

With `COc1cccc2c1NC(=O)C21CCN(C(=O)Nc2cccc3ccccc23)CC1`, the IC50 is > 40 µM (inactive).

With `Cn1c(=O)n(CCc2ccccc2)c(=O)c2c1nc1n2CCN1Cc1ccccc1`, the IC50 is > 40 µM (inactive).

Regarding `C=C/C(=C/C(=O)C[C@H](C)C[C@@H](C)CC[C@H](O)[C@H](C)C(=O)CC(O)[C@H](C)[C@@H](C)OC(=O)C[C@@H](O)C1=C(C)C(=O)OC1=O)CC` (some centres undefined), the IC50 is 2.6 µM.

Turning to `Cc1ccc2[nH]c(=O)c(-c3nc4ccc(C)cn4c3NCc3ccc(F)cc3)cc2c1`, the IC50 is > 40 µM (inactive).

Take `CC(C)n1cc(CN2CCC(C(=O)Nc3cccc(-c4cccc(Cl)c4)c3)CC2)cn1`: the IC50 was > 40 µM (inactive).

Take `COc1ccc(-c2noc([C@@H]3C[C@H](NC(=O)Nc4ccc(C)cc4)CN3C)n2)cc1`: the IC50 was > 40 µM (inactive).

In the case of `O=C(CCCCn1c(=O)[nH]c2ccccc2c1=O)Nc1cccc(Cl)c1`, the IC50 was > 40 µM (inactive).

As to `O=C(Cc1ccc(-n2c(=O)c3ccccc3n(CC(=O)Nc3ccc(Cl)cc3Cl)c2=O)cc1)NCc1ccco1`, the IC50 is > 40 µM (inactive).

On to `COC(=O)c1ccc(C(=O)Nc2cc3ccccc3cc2NC(=O)c2ccc(C(=O)OC)cc2)cc1`, for which the IC50 is > 40 µM (inactive).

Turning to `CCCCCCCc1cc(OC(=O)c2c(CCCCCCC)cc(O)cc2O[C@@H]2O[C@H](CO)[C@@H](O)[C@H](O)[C@H]2O)cc(O)c1C(=O)O`, the 50% inhibitory concentration (IC50) is 8.09 µM.

`CN(CC(=O)Nc1ccc(Cl)cc1)c1cnn(-c2nc3ccccc3[nH]2)c(=O)c1Cl`: the IC50 was > 40 µM (inactive).
